# Measured values as given in patent US9340819B2, “Method for detecting the presence of carbapenemase-producing bacteria in a sample” (priority 2011, dated 2016).
# Columns and labels:
# E. coli [1] = assay: MIC by Etest on Mueller-Hinton agar (Example 1); assay type: cell-based, Escherichia coli; settings: for MIC: Escherichia coli
# Procedure: (§1) Prior to performing the method of the invention, susceptibility testings were performed by determining Minimum Inhibitory Concentration (MIC) values by the Etest® (AB bioMérieux; Solna, Sweden) on Mueller-Hinton agar plates at 37° C. and results of susceptibility testing were recorded according to the Clinical and Laboratory Standards Institute (CLSI) guidelines as modified in June 2010 (18). The breakpoints for imipenem are S≦1 μg/ml (susceptibility) and R≧4 μg/ml (resistant). As for those for ertapenem, they are S≦0.25 μg/ml and R≧1 μg/ml (see Tables 1 and 2).
# E. cloacae [2] = assay: MIC of carbapenem by Etest (Example 2); assay type: cell-based, Enterobacter cloacae
# Procedure: (§2) All strains had previously been characterized for their β-lactamase content at the molecular level. Minimum inhibitory concentration of carbapenem were determined using the Etest® (AB bioMérieux, Solna, Sweden) and results were recorded according to US guidelines (CLSI), as updated in 2011.
# K. pneumoniae = assay: MIC of carbapenem by Etest (Example 2); assay type: cell-based, Klebsiella pneumoniae
# Procedure: as §2
# E. asburiae = assay: MIC of carbapenem by Etest (Example 2); assay type: cell-based, Enterobacter asburiae; settings: E. asburiae IMI-2, n=1
# Procedure: as §2
# P. stuartii [3] = assay: MIC of carbapenem by Etest (Example 2); assay type: cell-based, Providencia stuartii; settings: P. stuartii NDM-1, n=1
# Procedure: as §2
# C. freundii [4] = assay: MIC by Etest on Mueller-Hinton agar (Example 1); assay type: cell-based; settings: Citrobacter freundii; C. freundii STE (13); NDM-1 + OXA-1 + OXA-9 + OXA-10 + CTX-M-15 + TEM-1
# Procedure: as §1
# P. stuartii [5] = assay: MIC by Etest on Mueller-Hinton agar (Example 1); assay type: cell-based; settings: Providencia stuartii, NDM-1 + OXA-1 + CMY-6
# Procedure: as §1
# E. cloacae [6] = assay: MIC by Etest on Mueller-Hinton agar (Example 1); assay type: cell-based; settings: Enterobacter cloacae
# Procedure: as §1
# P. mirabilis [7] = assay: MIC by Etest on Mueller-Hinton agar (Example 1); assay type: cell-based; settings: Proteus mirabilis, plasmid mediated cephalosporinase ACC-1
# Procedure: as §1
# E. sakazaki = assay: MIC of carbapenem by Etest (Example 2); assay type: cell-based; settings: ESBL + decreased membrane permeability; E. sakazaki CTX-M-15, n=1
# Procedure: as §2
# Salmonella spp. = assay: MIC of carbapenem by Etest (Example 2); assay type: cell-based; settings: Salmonella spp. KPC-2, n=1
# Procedure: as §2
# K. ozonae = assay: MIC of carbapenem by Etest (Example 2); assay type: cell-based; settings: K. ozonae KPC-3, n=1
# Procedure: as §2
# P. rettgeri [8] = assay: MIC by Etest on Mueller-Hinton agar (Example 1); assay type: cell-based, Proteus rettgeri; settings: Providencia rettgeri; P. rettgeri RAP (9); OXA-181 + OXA-1
# Procedure: as §1
# E. coli [9] = assay: MIC of carbapenem by Etest (Example 2); assay type: cell-based, Escherichia coli
# Procedure: as §2
# P. mirabilis [10] = assay: MIC of carbapenem by Etest (Example 2); assay type: cell-based, Proteus mirabilis; settings: Plasmid mediated AmpC or chromosomal AmpC + decreased membrane permeability; P. mirabilis ACC-1, n=1
# Procedure: as §2
# M. morganii = assay: MIC of carbapenem by Etest (Example 2); assay type: cell-based, Morganella morganii; settings: Plasmid mediated AmpC or chromosomal AmpC + decreased membrane permeability; M. morganii Overexpressed cephalosporinase, n=2
# Procedure: as §2
# S. marcescens = assay: MIC of carbapenem by Etest (Example 2); assay type: cell-based, Serratia marcescens
# Procedure: as §2
# E. aerogenes = assay: MIC of carbapenem by Etest (Example 2); assay type: cell-based, Enterobacter aerogenes
# Procedure: as §2
# P. rettgeri [11] = assay: MIC of carbapenem by Etest (Example 2); assay type: cell-based, Proteus rettgeri
# Procedure: as §2
# C. freundii [12] = assay: MIC of carbapenem by Etest (Example 2); assay type: cell-based, Citrobacter freundii
# Procedure: as §2
compound,measurement,setting,value
"C[C@@H](O)[C@H]1C(=O)N2C(C(=O)O)=C(S[C@@H]3CN[C@H](C(=O)Nc4cccc(C(=O)O)c4)C3)[C@H](C)[C@H]12 [ERT, ertapenem]",MICs,"E. coli [1]; E. coli Ec13 SYD (23), plasmid mediated cephalosporinase CMY-2",0.06 µg/mL
same,MICs,"E. coli [1]; E. coli J53 (29), wild-type",0.06 µg/mL
same,MICs,"E. coli [1]; E. coli VMC (24), plasmid mediated cephalosporinase CMY-10",0.06 µg/mL
same,MIC,"E. coli [1]; E. coli 271 AUS (12), NDM-1 + CTX-M-15 + TEM-1",8 µg/mL
same,MIC,"E. coli [1]; E. coli 5649 GEN, NDM-1 + OXA-1 + CMY-30 + TEM-1",32 µg/mL
same,MIC,"E. coli [1]; E. coli (18), ESBL CTX-M-14",0.06 µg/mL
same,MIC,"E. coli [1]; E. coli (20), ESBL VEB-1",0.06 µg/mL
same,MIC,"E. coli [1]; E. coli ALL, NDM-1 + OXA-1 + OXA-2 + CTX-M-15 + TEM-1",8 µg/mL
same,MIC,"E. coli [1]; E. coli BOU, OXA-48 + CTX-M-15",1.5 µg/mL
same,MIC,"E. coli [1]; E. coli COL (2), KPC-2",0.5 µg/mL
same,MIC,"E. coli [1]; E. coli DIH, VIM-19",2 µg/mL
same,MIC,"E. coli [1]; E. coli DIN, KPC",> 32 µg/mL
same,MIC,"E. coli [1]; E. coli FOR, ESBL CTX-M-15",0.06 µg/mL
same,MIC,"E. coli [1]; E. coli HAN (7), OXA-48",1.5 µg/mL
same,MIC,"E. coli [1]; E. coli MAD (14), VIM-1 + CTX-M-3",0.5 µg/mL
same,MIC,"E. coli [1]; E. coli MAD, IMP-1",3 µg/mL
same,MIC,"E. coli [1]; E. coli PSP, KPC-2",2 µg/mL
same,MIC,"E. coli [1]; E. coli RIC, NDM-1 + OXA-1 + OXA-10 + CMY-16",8 µg/mL
same,MICs range,"E. cloacae [2]; E. cloacae GES-5, n=1",>32 mg/L
same,MICs range,"E. cloacae [2]; E. cloacae IMP-1, n=12",>32 mg/L
same,MICs range,"E. cloacae [2]; E. cloacae IMP-8, n=2",0.5 to 1^ mg/L
same,MICs range,"E. cloacae [2]; E. cloacae KPC-2, n=7",1.5 to 32 mg/L
same,MICs range,"E. cloacae [2]; E. cloacae NDM-1, n=1",16 mg/L
same,MICs range,"E. cloacae [2]; E. cloacae NMC-A, n=1",>32 mg/L
same,MICs range,"E. cloacae [2]; E. cloacae OXA-48, n=3",0.5 to 16 mg/L
same,MICs range,"E. cloacae [2]; ESBLs, E. cloacae CTX-M-15, n=3",0.12 mg/L
same,MICs range,"E. cloacae [2]; ESBLs, E. cloacae VEB-1, n=1",0.12 mg/L
same,MICs range,"K. pneumoniae; ESBL + decreased membrane permeability, K. pneumoniae SHV-2a, n=1",2 mg/L
same,MICs range,"K. pneumoniae; ESBL + decreased membrane permeability, K. pneumoniae SHV-28, n=1",4 mg/L
same,MICs range,"K. pneumoniae; ESBLs, K. pneumoniae CTX-M-3, n=1",0.12 mg/L
same,MICs range,"K. pneumoniae; ESBLs, K. pneumoniae CTX-M-14, n=1",0.12 mg/L
same,MICs range,"K. pneumoniae; ESBLs, K. pneumoniae CTX-M-15, n=3",0.12 mg/L
same,MICs range,"K. pneumoniae; K. pneumoniae IMP-1, n=5",2 to 4 mg/L
same,MICs range,"K. pneumoniae; K. pneumoniae IMP-8, n=2",0.5 to 1^ mg/L
same,MICs range,"K. pneumoniae; K. pneumoniae NDM-4, n=1",>32 mg/L
same,MICs range,"K. pneumoniae; K. pneumoniae OXA-181, n=2",2 to 4 mg/L
same,MICs range,"K. pneumoniae; K. pneumoniae VIM-19, n=1",16 mg/L
same,MICs range,"K. pneumoniae; Plasmid mediated AmpC or chromosomal AmpC + decreased membrane permeability, K. pneumoniae DHA-1, n=1",>32 mg/L
same,MICs range,"K. pneumoniae; Plasmid mediated AmpC or chromosomal AmpC + decreased membrane permeability, K. pneumoniae DHA-2, n=1",0.5 mg/L
same,MICs range,E. asburiae,>32 mg/L
same,MICs range,P. stuartii [3],0.38 mg/L
same,MIC,C. freundii [4],> 32 µg/mL
same,MIC,P. stuartii [5],> 32 µg/mL
same,MIC,"E. cloacae [6]; E. cloacae 2185, ESBL OXA-163",0.19 µg/mL
same,MIC,"E. cloacae [6]; E. cloacae (1), KPC-2",6 µg/mL
same,MIC,"E. cloacae [6]; E. cloacae (17), ESBL CTX-M-15",0.19 µg/mL
same,MIC,"E. cloacae [6]; E. cloacae ARF (25), overexpression of chromosomal cephalosporinase AmpC",0.5 µg/mL
same,MIC,"E. cloacae [6]; E. cloacae BLA, overexpression of chromosomal cephalosporinase AmpC",0.5 µg/mL
same,MIC,"E. cloacae [6]; E. cloacae CON (26), overexpression of chromosomal cephalosporinase AmpC",0.75 µg/mL
same,MIC,"E. cloacae [6]; E. cloacae IR38, NDM-1 + CTX-M-15",> 32 µg/mL
same,MIC,"E. cloacae [6]; E. cloacae TUR (6), OXA-48 + SHV-5",1 µg/mL
same,MIC,"E. cloacae [6]; E. cloacae, ESBL VEB-1",0.19 µg/mL
same,MIC,P. mirabilis [7],0.19 µg/mL
same,MICs range,E. sakazaki,1.5 mg/L
same,MICs range,Salmonella spp.,1 mg/L
same,MICs range,K. ozonae,>32 mg/L
same,MIC,P. rettgeri [8],2 µg/mL
same,MICs range,"E. coli [9]; E. coli IMP-1, n=2",3 to 4 mg/L
same,MICs range,"E. coli [9]; E. coli IMP-8, n=1",8 mg/L
same,MICs range,"E. coli [9]; E. coli OXA-48, n=6",0.5 to 16 mg/L
same,MICs range,"E. coli [9]; E. coli VIM-1, n=2",0.38 to 1.5 mg/L
same,MICs range,"E. coli [9]; E. coli VIM-2, n=2",0.5 to 1.5 mg/L
same,MICs range,"E. coli [9]; E. coli VIM-19, n=1",16 mg/L
same,MICs range,"E. coli [9]; ESBLs, E. coli CTX-M-1, n=1",0.12 mg/L
same,MICs range,"E. coli [9]; ESBLs, E. coli CTX-M-3, n=1",0.12 mg/L
same,MICs range,"E. coli [9]; ESBLs, E. coli CTX-M-14, n=2",0.12 mg/L
same,MICs range,"E. coli [9]; ESBLs, E. coli CTX-M-15, n=2",0.12 mg/L
same,MICs range,"E. coli [9]; ESBLs, E. coli VEB-1, n=1",0.12 mg/L
same,MICs range,"E. coli [9]; Plasmid mediated AmpC or chromosomal AmpC + decreased membrane permeability, E. coli ACC-1, n=1",0.12 mg/L
same,MICs range,"E. coli [9]; Plasmid mediated AmpC or chromosomal AmpC + decreased membrane permeability, E. coli CMY-2, n=1",0.12 mg/L
same,MICs range,"E. coli [9]; Plasmid mediated AmpC or chromosomal AmpC + decreased membrane permeability, E. coli CMY-10, n=1",0.38 mg/L
same,MICs range,"E. coli [9]; Plasmid mediated AmpC or chromosomal AmpC + decreased membrane permeability, E. coli DHA-1, n=1",0.12 mg/L
same,MICs range,"E. coli [9]; Plasmid mediated AmpC or chromosomal AmpC + decreased membrane permeability, E. coli Extended spectrum cephalosporinase, n=1",0.12 mg/L
same,MICs range,"E. coli [9]; Plasmid mediated AmpC or chromosomal AmpC + decreased membrane permeability, E. coli Overexpressed cephalosporinase, n=1",>32 mg/L
same,MICs range,P. mirabilis [10],0.12 mg/L
same,MICs range,M. morganii,0.12 mg/L
same,MICs range,"S. marcescens; S. marcescens IMP-1, n=2",>32 mg/L
same,MICs range,"S. marcescens; S. marcescens IMP-11, n=1",>32 mg/L
same,MICs range,"S. marcescens; S. marcescens KPC-2, n=2",>32 mg/L
same,MICs range,"S. marcescens; S. marcescens SME-1, n=1",4 mg/L
same,MICs range,"S. marcescens; S. marcescens SME-2, n=1",4 mg/L
same,MICs range,"S. marcescens; S. marcescens VIM-2, n=1",>32 mg/L
same,MICs range,"E. aerogenes; E. aerogenes KPC-2, n=1",>32 mg/L
same,MICs range,"E. aerogenes; Plasmid mediated AmpC or chromosomal AmpC + decreased membrane permeability, E. aerogenes Overexpressed cephalosporinase, n=1",4 mg/L
same,MICs range,"P. rettgeri [11]; P. rettgeri NDM-1, n=1",0.5 mg/L
same,MICs range,"P. rettgeri [11]; P. rettgeri OXA-181, n=1",1 mg/L
same,MICs range,"C. freundii [12]; C. freundii NDM-1, n=1",>32 mg/L
same,MICs range,"C. freundii [12]; ESBL + decreased membrane permeability, C. freundii TEM-3, n=1",8 mg/L
